Assay [1] concerns the target AAP695 /s. As to the kind of experiment: ELISA: binding of free HSPG (intact or core protein) to immobilized AAP695 /s. As for the experimental part: (§1) To study the interaction between HSPG and either AAP770 /s, AAP751 /s, AAP695 /s or fibronectin, the AAP proteins and fibronectin were individually immobilized on polystyrene wells and incubated with increasing concentrations of purified HSPG. Fibronectin was used as a test protein because of its known affinity for HSPG. […] To address this concern, the purified protein core of HSPG in place of the intact proteoglycan was utilized to examine the role of the protein component.
(§2) The assay used in studying the interaction between HSPG and protein ligands was an ELISA technique. Briefly, polystyrene micro-titer plates (Linbro, Flow Lab Inc.) were coated with a 100 μl solution, containing 1 μg/ml of the protein of interest (one of the three forms of AAP or fibronectin) in 20 mM NaHCO3 buffer pH 9.6. After incubation overnight at 4° C., the plates were rinsed with 0.15M NaCl, 20 mM Tris-Cl pH 7.5 (TBS). The plates were then incubated with 150 μl of 1% BSA in TBS for 2 hours at 37° C. to block the residual hydrophobic surface on the wells. After rinsing with TBS containing 0.05% (w/v) Tween 20 (TBS-Tween), 100 μl of various concentrations of HSPG in TBS-Tween were added. The plates were left overnight at 4° C., to permit maximum binding of HSPG to the coated proteins. The plates were then washed extensively and incubated for 2 hours at 37° C., with 100 μl of anti-HSPG diluted in TBS-Tween containing 0.1% BSA. […] Finally, after further washing, the bound antibodies were detected by adding an alkaline phosphatase substrate solution (100 μl) containing 2 mg/ml p-nitrophenyl phosphate, 0.1 mM ZnCl2, 1 mM MgCl2 and 100 mM glycine pH 10. […] The absorbance of the released p-nitrophenol was measured at 405 nm with a Titertek Multiscan/MCC 340 (Flow Lab. Ltd.). The amounts of HSPG bound were determined by the net OD405 after substracting the OD from the blank wells in which the HSPG incubation step was omitted. When the actual amounts of HSPG bound were to be calculated, a set of standards (0.05-50 ng/well) of HSPG in NaHCO3 buffer were pre-coated into wells on the same plates as the test proteins. […] The actual amounts of HSPG bound to the test proteins were calculated from the OD405 standard curve produced by the HSPG standards using a Titersoft II E.J.A. software program (Flow Lab. Ltd.). […]
To determine the Kd of the protein-HSPG complex, the binding data were analyzed assuming a thermodynamic equilibrium for the formation of the complex, B, from the ligand in solution, HSPG, and the uncomplexed protein adsorbed to the microtiter well, R, according to the equation: [formula] Due to the nature of the experimental design, nonspecific binding could not be measured directly. […]
For orientation: In an ELISA, binding on a coated surface is turned into a signal by an enzyme label.

Assay [2] deals with fibronectin. As to the kind of experiment: ELISA: binding of free HSPG (intact or core protein) to immobilized fibronectin. Details: species or system bovine. To be noted: absence of test compounds; mean ± SD; read-out: Kd of HSPG (intact or core protein) complex with fibronectin. From the text: Fibronectin (from bovine plasma), heparin (grade II from porcine intestinal mucosa, average molecular weight=[…]), heparan sulfate, chondroitin sulfate, dextran sulfate, BSA, and alkaline phosphatase substrate were obtained from Sigma, St. Louis, Mo. Alkaline phosphatase conjugated goat anti-rabbit IgG was obtained from Boehringer-Manneheim, and heparitinase from ICN Biochemicals.
To study the interaction between HSPG and either AAP770 /s, AAP751 /s, AAP695 /s or fibronectin, the AAP proteins and fibronectin were individually immobilized on polystyrene wells and incubated with increasing concentrations of purified HSPG. Fibronectin was used as a test protein because of its known affinity for HSPG. […]
(§3) The assay used in studying the interaction between HSPG and protein ligands was an ELISA technique. […] Finally, after further washing, the bound antibodies were detected by adding an alkaline phosphatase substrate solution (100 μl) containing 2 mg/ml p-nitrophenyl phosphate, 0.1 mM ZnCl2, 1 mM MgCl2 and 100 mM glycine pH 10. […] The absorbance of the released p-nitrophenol was measured at 405 nm with a Titertek Multiscan/MCC 340 (Flow Lab. Ltd.). The amounts of HSPG bound were determined by the net OD405 after substracting the OD from the blank wells in which the HSPG incubation step was omitted. […]

For assay [3], the target named is AAP751 /s. As to the kind of experiment: ELISA: binding of free HSPG (intact or core protein) to immobilized AAP751 /s. Particulars: for Kd: absence of test compounds, mean ± SD, read-out: Kd of HSPG (intact or core protein) complex with AAP751 /s. As for the experimental part: as §1
as §2, with “added.” for “added. The plates were left overnight at 4° C., to permit maximum binding of HSPG to the coated proteins. The plates were then washed extensively and incubated for 2 hours at 37° C., with 100 μl of anti-HSPG diluted in TBS-Tween containing 0.1% BSA.”

The subject of assay [4] is BSA. Description: ELISA control: binding of HSPG to BSA coated wells. The arrangement: species or system bovine. The procedure: The assay used in studying the interaction between HSPG and protein ligands was an ELISA technique. Briefly, polystyrene micro-titer plates (Linbro, Flow Lab Inc.) were coated with a 100 μl solution, containing 1 μg/ml of the protein of interest (one of the three forms of AAP or fibronectin) in 20 mM NaHCO3 buffer pH 9.6. After incubation overnight at 4° C., the plates were rinsed with 0.15M NaCl, 20 mM Tris-Cl pH 7.5 (TBS). The plates were then incubated with 150 μl of 1% BSA in TBS for 2 hours at 37° C. to block the residual hydrophobic surface on the wells. After rinsing with TBS containing 0.05% (w/v) Tween 20 (TBS-Tween), 100 μl of various concentrations of HSPG in TBS-Tween were added. […] Finally, after further washing, the bound antibodies were detected by adding an alkaline phosphatase substrate solution (100 μl) containing 2 mg/ml p-nitrophenyl phosphate, 0.1 mM ZnCl2, 1 mM MgCl2 and 100 mM glycine pH 10. […] The absorbance of the released p-nitrophenol was measured at 405 nm with a Titertek Multiscan/MCC 340 (Flow Lab. Ltd.). The amounts of HSPG bound were determined by the net OD405 after substracting the OD from the blank wells in which the HSPG incubation step was omitted. When the actual amounts of HSPG bound were to be calculated, a set of standards (0.05-50 ng/well) of HSPG in NaHCO3 buffer were pre-coated into wells on the same plates as the test proteins. […]

The target of assay [5] is AAP770 /s. As to the kind of experiment: ELISA: binding of free HSPG to immobilized AAP770 /s. To be noted: absence of test compounds, mean ± SD, read-out: Kd of HSPG complex with AAP770 /s. The procedure:
as §1
as §3, with “omitted. When the actual amounts of HSPG bound were to be calculated, a set of standards (0.05-50 ng/well) of HSPG in NaHCO3 buffer were pre-coated into wells on the same plates as the test proteins.” for “omitted.”

Where “and” joins values, the source holds several entries; their conditions need not be identical. Identical values can stand only once. Like-named read-outs stand apart in the source and are kept apart here.

Regarding “heparan sulfate proteoglycan [Intact HSPG]”, the Kd in assay [1] (absence of test compounds, mean ± SD, listed as HSPG, read-out: Kd of HSPG (intact or core protein) complex with AAP695 /s) was 0.88 nM and ~0.9 nM; in assay [1] (absence of test compounds, mean ± SD, listed as intact HSPG, read-out: Kd of HSPG (intact or core protein) complex with AAP695 /s) it was 0.9 ± 0.25 nM; in assay [1] (absence of test compounds, mean ± SD, read-out: Kd of HSPG (intact or core protein) complex with AAP695 /s), 0.88 ± 0.35 nM; in assay [1] (heparin 400 μg/ml, read-out: Kd of HSPG (intact or core protein) complex with AAP695 /s in presence of heparin), 3.56 ± 1.78 nM; in assay [2], 0.98 nM; in assay [3] (listed as HSPG), 10.2 nM and 9 to 10 nM. The Kd in assay [3] was 10.2 ± 2.45 nM; in assay [5] (listed as HSPG), 9.13 nM and 9 to 10 nM; in assay [5], 9.13 ± 1.06 nM. Further, in assay [3] (typical experiment using AAP751 /s), the “Bmax, total binding capacity” value was 15.9±0.2 ng HSPG. Besides, the “binding of HSPG to BSA in comparison to the tested proteins” value in assay [4] is recorded as “negligible”.

Source of the values: patent publication US5164295A, “Method for identifying amyloid protein-extracellular matrix protein affinity altering compounds” (The Upjohn Company, priority 1991, dated 1992).
